System: Arabidopsis thaliana K32-1-1, K32-3-1 and K32-5-1
Experiment: Growth test in BS-containing medium, Arabidopsis transformed with Kasalath-derived CYP72A32
Assay type: in vivo
Conditions: day 10 from onset of cultivation, compared to NT
Description: In this Example, Agrobacterium as prepared in Example 4 was used to introduce HptII::35Spro::Kasalath CYP72A31::Tnos vector plasmid (pCAMBIA1390-KasCYP72A31), HptII::35Spro::Kasalath CYP72A32::Tnos vector plasmid (pCAMBIA1390-KasCYP72A32), or HptII::35Spro::Kasalath CYP72A33::Tnos vector plasmid (pCAMBIA1390-KasCYP72A33) into Arabidopsis thaliana (ecotype: Col-0) by using a floral-dip method. The floral-dip method followed a standard method. […] K31-4-2 and K31-6-5 were selected as fixed lines derived from pCAMBIA1390-KasCYP72A31; K32-1-1, K32-3-1, and K32-5-1 were selected as fixed lines derived from pCAMBIA1390-KasCYP72A32; and K33-1-3 and K33-2-4 were selected as fixed lines derived from pCAMBIA1390-KasCYP72A33. Their seeds were seeded in a medium containing each concentration of BS, and cultivated for 10 days. FIGS. 16A and 16B illustrate the results.
Next, 15 seeds for each of non-transformed Arabidopsis thaliana (NT which is denoted by “Col-0” in FIGS. 18A-18C) and transformed plant bodies (K32-1-1 which is denoted by “K32oe-1-1” in FIGS. 18A-18C, K32-3-1 which is denoted by “K32oe-3-1” in FIGS. 18A-18C, and K32-5-1 which is denoted by “K32oe-5-” in FIGS. 18A-18C) were cultivated on a medium containing each concentration of BS. […]

COc1cc(OC)nc(Oc2cccc(Oc3nc(OC)cc(OC)n3)c2C(=O)O)n1 [BS, bispyribac sodium]
BS sensitivity (germinated seeds, emerging of true leaves, fresh weight of above-ground part): BS sensitivity equivalent to NT
